{"source": "paper PMC4794603", "about": "(Molecules and Cells, 2016)", "key": {"CYP107W1": {"target": "T1, CYP107W1 (Streptomyces avermitilis, UniProt Q93HJ0)", "T1 sequence (Q93HJ0 1-404)": "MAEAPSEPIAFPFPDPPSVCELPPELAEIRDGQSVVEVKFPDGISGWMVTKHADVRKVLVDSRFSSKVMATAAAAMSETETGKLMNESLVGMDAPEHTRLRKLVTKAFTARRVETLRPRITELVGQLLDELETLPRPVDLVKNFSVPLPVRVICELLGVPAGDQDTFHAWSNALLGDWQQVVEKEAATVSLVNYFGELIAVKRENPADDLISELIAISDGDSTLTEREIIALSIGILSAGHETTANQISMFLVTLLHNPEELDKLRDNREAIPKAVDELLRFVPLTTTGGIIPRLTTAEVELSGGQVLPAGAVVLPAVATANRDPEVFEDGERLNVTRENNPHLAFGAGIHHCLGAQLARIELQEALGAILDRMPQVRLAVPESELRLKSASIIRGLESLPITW", "assay": "co-crystal structure at […] Å", "type": "binding"}, "CYP107W1 W178G mutant [1]": {"target": "T2, CYP107W1 W178G mutant (Streptomyces avermitilis, UniProt Q93HJ0, W178G)", "T2 sequence (Q93HJ0 1-404 W178G)": "T1 sequence (Q93HJ0 1-404)", "assay": "UV-vis spectral binding titration"}, "CYP107W1 W178G mutant [2]": {"target": "T2, CYP107W1 W178G mutant", "assay": "UV-vis spectral binding titration", "remark": "listed apart in the source"}, "[3]": {"test_system": "[H][C@@]12OC(=O)C=C[C@@H](C)[C@H](O)[C@@H](C)C(=O)[C@@H](C)[C@H](O)[C@@H](C)C(=O)[C@H](C)[C@H](O)[C@@H](C)CC=CC=C[C@@H](CC)CC[C@@]([H])(O[C@@]3(CC[C@@H](C)[C@@H](C[C@H](C)O)O3)[C@@H]1C)[C@@H]2C", "assay": "purified protein", "details": "heme"}}, "note": "Read-outs that look alike come from different tables or passages of the source.", "data": [{"molecule": "CC[C@H]1/C=C\\C=C\\C[C@@H](C)[C@H](O)[C@@](C)(O)C(=O)[C@@H](C)[C@H](O)[C@@H](C)C(=O)[C@@H](C)[C@H](O)[C@@H](C)/C=C/C(=O)O[C@@H]2[C@H](C)[C@H](CC1)O[C@]1(CC[C@H](C)[C@H](C[C@@H](C)O)O1)[C@H]2C", "note": "[OliA, oligomycin A]", "values": [{"measurement": "co-crystal structure at 2.6 Å", "setting": "CYP107W1", "result": "Coordinates and structure factors of CYP107W1-OliA have been deposited in the Protein Data Bank with accession number 4WQ0."}]}, {"molecule": "Clc1ccc(COC(Cn2ccnc2)c2ccc(Cl)cc2Cl)cc1", "note": "(centres unmarked) [econazole]", "values": [{"measurement": "Kd", "setting": "CYP107W1 W178G mutant [1]", "result": "5.3 ± 0.4", "unit": "µM"}]}, {"molecule": "Clc1ccc(COC(Cn2ccnc2)c2ccc(Cl)cc2Cl)c(Cl)c1", "note": "(centres unmarked) [miconazole]", "values": [{"measurement": "Kd", "setting": "CYP107W1 W178G mutant [1]", "result": "3.1 ± 0.3", "unit": "µM"}]}, {"molecule": "CC[C@@H]1/C=C/C=C/C[C@H](C)[C@H](O)[C@](C)(O)C(=O)[C@H](C)[C@@H](O)[C@H](C)C(=O)[C@H](C)[C@@H](O)[C@H](C)/C=C/C(=O)O[C@H]2[C@@H](C)[C@@H](CC1)O[C@@]1(CC[C@@H](C)[C@@H](C[C@H](C)O)O1)[C@@H]2C", "note": "[oligomycin A]", "values": [{"measurement": "Kd", "setting": "CYP107W1 W178G mutant [2]", "result": "4.3 ± 0.7", "unit": "µM"}]}, {"molecule": "CYP107W1 W178G mutant (Streptomyces avermitilis; W178G)", "values": [{"measurement": "Km", "setting": "[3]", "result": "3.4 ± 0.4", "unit": "µM"}]}]}
